For data set [1], the target named is T1, cMet (Homo sapiens, UniProt P08581).
T1 construct: Human colonoids provide clinically relevant levels of target expression; endogenous in cells; host or cells: Patient-derived human colonoids (cMet-high adenoma, cMet-low adenoma, normal), either cultured or implanted orthotopically in NSG mouse colon
Kind of data set: In vivo NIR fluorescence endoscopy of patient-derived colonoids implanted orthotopically in NSG mouse colon. To be noted: NSG mice, 1 h post-injection, n = 6 mice. The procedure: Colonoids were harvested and treated, as described previously. Colonoids were resuspended in engraftment medium: DPBS, 5% Matrigel, 10 µM Y27632. Prior to colonoid implantation, 7–12-week-old NSG (NOD.Cg-Prkdc^scidIl2rg^tm1Wjl/SzJ, Jackson laboratory, #005557) mice were treated with 2.5% dextran sulfate sodium (DSS) for 5 days and supplied with regular water for another day. Anesthesia was induced and maintained via a nose cone with inhaled isoflurane mixed with oxygen at concentrations of 2–4% at a flow rate of 0.5 L/min. A total of ~2.5–5 × 10^5 cell aggregates in 200 μL were injected intrarectally. The rectum was closed immediately using tissue adhesive (Santa Cruz Biotechnology, Dallas, TX, USA; #SC361931) to promote retention of the implanted colonoids. Colonoid growth was monitored weekly by small animal endoscopy with white light illumination. Imaging was performed after the implanted adenomas were clearly visible.
Mice were fasted for 4–6 h prior to in vivo imaging. Anesthesia was induced and maintained using inhaled isoflurane mixed with oxygen at concentrations of 2–4% and a flow rate of 0.5 L/min via a nose cone. The peptides were injected intravenously using a concentration of 200 μM diluted in 200 μL of PBS. A rigid small animal endoscope (Karl Storz Veterinary Endoscopy, Goleta, CA, USA) was modified to deliver NIR excitation at λex = 785 nm. This instrument was inserted into the mouse rectum at 1 h post-injection to collect in vivo fluorescence images. After 3 days to allow for target peptide clearance, the scrambled (control) peptide was administered systemically and imaged similarly. A total of n = 3 independent regions of interest (ROI) with dimensions of 20 × 20 μm^2 were identified randomly from the implanted area (target) and from adjacent normal colonic mucosa (background). The mean fluorescence intensities were used to calculate target-to-background (T/B) ratios.

Data set [2] deals with colonic adenomas. Kind of data set: In vivo NIR fluorescence endoscopy of spontaneous colonic adenomas in CPC;Apc mice (pharmacokinetics, T/B ratio). More on the design: species or system mouse. The procedure: CPC;Apc mice have been genetically engineered to sporadically delete an APC gene regulated by a Cre promoter (CDX2P-9.5NLS-Cre) to spontaneously form either flat or polypoid adenomas in the distal colon.
The IRDye800-labeled target peptide (200 μM, 200 μL) was injected intravenously in Cpc;Apc mice, and fluorescence images were collected at 0, 0.5, 1, 2, 4, 6, 10, 24, 48 h post-injection using the small animal endoscope. The IRDye800-labeled scrambled (control) peptide was administered and imaged the same way 3 days after. The adjacent nontumor tissue region with an equal area of the tumor region was used for background. The time point with the highest target-to-background (T/B) ratio was selected as peak uptake.

The nature of data set [3]: Serum stability by analytical RP-HPLC. Conditions: CPC;Apc mouse serum 194 μL, 30 μM peptide, 37 °C, 0, 0.5, 1, 2, 4, 8, 24 h, acetonitrile precipitation, RP-HPLC area under the peak, R^2 = 0.99; read-out: Half-life T1/2 in mouse serum (converted). In kind it is in vitro ADME. The procedure:
Peptide stability was evaluated by incubating 6 μL of 1 mM peptide in PBS at 37 °C, resulting in a final concentration of 30 μM in 194 μL of serum obtained from a CPC;Apc mouse. Samples were precipitated by adding a double volume of acetonitrile and centrifuging for 10 min at 4 °C. RP-HPLC was performed at 0, 0.5, 1, 2, 4, 8, and 24 h. The relative peptide concentrations were determined by measuring the area under the peak (Waters, Breeze 2). The coefficient of determination R^2 was determined using Graphpad Prism 8 software (GraphPad Software, Boston, MA, USA).

In data set [4] the target is T1, cMet. Kind of data set: Ex vivo immunofluorescence of excised NSG mouse colon with implanted colonoids, human-to-mouse (h/m) ratio. In kind it is binding. Conditions: excised NSG colon sections, peptide 5 μM 10 min RT, antibody 1:100, mean ± SD, n = 6 colonoids. The procedure:
Tissue sections were deparaffinized, and antigen retrieval was performed as described previously. Sections were blocked with goat serum for 30 min at RT followed by overnight incubation with 1:100 dilution of monoclonal anti-cMet antibody (Abcam; #EP1454Y) and undiluted human-specific anti-cytokeratin (CAM 5.2, BD Biosciences, Franklin Lakes, NJ, USA; #345779) at 4 °C. Thereafter, 1:500 AF488-labeled goat anti-rabbit secondary antibody (Life Technologies; #A-11029) and 1:500 AF568-labeled goat anti-mouse secondary antibody (Abcam, #ab175473) were administered. After washing with PBST, the slides were stained with the IRDye800-labeled peptides at a concentration of 5 μM for 10 min at RT. The tissue sections were then washed with PBST and mounted using a Prolong Gold reagent containing DAPI (Invitrogen; #P36931). NIR fluorescence images were collected using an inverted confocal microscope (Leica; Stellaris 5). The fluorescence intensities were quantified using custom MATLAB R2022a, and regions of saturated intensities were avoided.

The target of data set [5] is T1, cMet. Kind of data set: Peptide biodistribution, ex vivo NIR fluorescence of resected organs and colonoids (Pearl Trilogy). In kind it is in vivo. To be noted: NSG mice, 200 μM, 200 μL i.v., 1 hour post-injection, ex vivo λex 785 / λem 820 nm, mean ± SD. The procedure: Peptides (200 μM, 200 μL) were injected intravenously in NSG mice ~3 weeks after orthotopic implantation of the patient-derived colonoids. The mice were euthanized at 1 h post-injection. Major organs were resected and imaged using the Pearl Trilogy (LI-COR Biosciences) with excitation at λex = 785 nm and emission at λem = 820 nm to measure the peptide biodistribution. Fluorescence intensities were quantified from each whole tumor or organ using Image Studio 5.5.4 software (LI-COR Biosciences).

Data set [6] is described as follows: Peptide safety: necropsy histology (H&E), blood hematology and chemistry. Conditions: CPC;Apc mice, 200 μM, 200 μL i.v., 48 h post-injection. In kind it is in vivo, mouse. The procedure: CPC;Apc mice were euthanized at 48 hours post-injection with QQT* -IRDye800 (200 μM, 200 μL). Vital organs were excised, sectioned, and evaluated by routine histology (H&E) to evaluate for signs of acute toxicity. Whole blood was collected retro-orbitally using a capillary tube and submitted for evaluation of hematology and chemistry.

Setting [7] is: 200 μM in 200 μL i.v., mean ± SD.
[8] abbreviates: 200 μM, 200 μL i.v., images at 0-48 h.
Setting [9] is: spontaneous adenomas, 1 hour after i.v. administration, mean ± SD.

We go through 2 molecules from PMC10571995, “Near-Infrared Imaging of Colonic Adenomas In Vivo Using Orthotopic Human Organoids for Early Cancer Detection” (Cancers, 2023).

Residues, ends and D or L forms follow the SMILES beside them. *: point of attachment. X2 = CC1(C)C(/C=C/C2=C(Oc3ccc(S(=O)(=O)O)cc3)C(=C/C=C3/N(CCCCCC(=O)NCCN4C(=O)CC(*)C4=O)c4ccc(S(=O)(=O)O)cc4C3(C)C)/CCC2)=[N+](CCCCS(=O)(=O)[O-])c2ccc(S(=O)(=O)O)cc21; X1 = CC1(C)C(=CC=C2CCCC(C=CC3=[N+](CCCCS(=O)(=O)[O-])c4ccc(S(=O)(=O)O)cc4C3(C)C)=C2Oc2ccc(S(=O)(=O)O)cc2)N(CCCCCC(=O)NCCN2C(=O)CC(*)C2=O)c2ccc(S(=O)(=O)O)cc21

T1 sequence (P08581 25-1390): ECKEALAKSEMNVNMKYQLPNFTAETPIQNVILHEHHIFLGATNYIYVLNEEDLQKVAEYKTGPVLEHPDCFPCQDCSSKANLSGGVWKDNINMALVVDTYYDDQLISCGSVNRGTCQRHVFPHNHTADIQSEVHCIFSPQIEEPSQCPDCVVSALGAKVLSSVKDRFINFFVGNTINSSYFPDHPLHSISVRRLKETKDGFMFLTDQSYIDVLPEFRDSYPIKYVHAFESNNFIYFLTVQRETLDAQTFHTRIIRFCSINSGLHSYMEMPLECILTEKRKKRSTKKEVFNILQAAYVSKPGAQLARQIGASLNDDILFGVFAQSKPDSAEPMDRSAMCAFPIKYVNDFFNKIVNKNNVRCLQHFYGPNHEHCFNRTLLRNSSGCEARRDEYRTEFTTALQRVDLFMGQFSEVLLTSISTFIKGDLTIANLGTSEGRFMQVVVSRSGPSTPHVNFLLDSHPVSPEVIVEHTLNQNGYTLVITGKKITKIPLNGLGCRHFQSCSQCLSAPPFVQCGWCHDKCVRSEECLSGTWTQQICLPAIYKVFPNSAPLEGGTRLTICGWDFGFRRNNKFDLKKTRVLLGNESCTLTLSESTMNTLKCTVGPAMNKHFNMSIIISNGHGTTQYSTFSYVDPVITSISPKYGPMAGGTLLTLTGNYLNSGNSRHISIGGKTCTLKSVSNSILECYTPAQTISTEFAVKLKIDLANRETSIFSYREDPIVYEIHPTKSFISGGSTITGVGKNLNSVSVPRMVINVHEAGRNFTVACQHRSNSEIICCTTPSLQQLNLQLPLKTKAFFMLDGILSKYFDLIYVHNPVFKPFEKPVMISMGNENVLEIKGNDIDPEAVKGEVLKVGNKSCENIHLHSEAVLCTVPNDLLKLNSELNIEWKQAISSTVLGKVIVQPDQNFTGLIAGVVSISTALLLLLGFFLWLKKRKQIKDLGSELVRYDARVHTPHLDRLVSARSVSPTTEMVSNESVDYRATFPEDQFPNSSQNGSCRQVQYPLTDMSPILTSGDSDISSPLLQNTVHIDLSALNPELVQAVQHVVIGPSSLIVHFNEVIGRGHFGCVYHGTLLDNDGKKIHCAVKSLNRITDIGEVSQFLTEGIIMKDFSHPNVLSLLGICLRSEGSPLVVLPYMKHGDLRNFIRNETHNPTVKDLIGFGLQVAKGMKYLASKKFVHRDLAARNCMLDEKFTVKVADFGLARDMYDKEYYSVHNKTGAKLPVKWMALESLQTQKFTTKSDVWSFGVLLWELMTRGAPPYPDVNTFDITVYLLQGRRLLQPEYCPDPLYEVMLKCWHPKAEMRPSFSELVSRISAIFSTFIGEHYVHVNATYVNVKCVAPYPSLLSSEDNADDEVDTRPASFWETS

With `CC(C)C[C@H](NC(=O)[C@H](CO)NC(=O)[C@H](Cc1c[nH]c2ccccc12)NC(=O)[C@H](CC(N)=O)NC(=O)[C@@H](NC(=O)[C@H](CCC(N)=O)NC(=O)[C@@H](N)CCC(N)=O)[C@@H](C)O)C(=O)NCC(=O)NCC(=O)NCC(=O)N[C@@H](CO)C(=O)N[C@@H](CSC1CC(=O)N(CCNC(=O)CCCCCN2C(=CC=C3CCCC(C=CC4=[N+](CCCCS(=O)(=O)[O-])c5ccc(S(=O)(=O)O)cc5C4(C)C)=C3Oc3ccc(S(=O)(=O)O)cc3)C(C)(C)c3cc(S(=O)(=O)O)ccc32)C1=O)C(N)=O` (stereo partly drawn) [QQT*-IRDye800] (H-QQTNWSLGGGSC(X1)-NH2; N-terminus and C-terminus assumed), in data set [1] (200 μM in 200 μL i.v., endoscope λex 785 nm, mean ± SD), the “Quantified fluorescence intensity (T/B ratio) in vivo, cMet^high adenoma” value amounted to 2.35 ± 0.35. Moreover, in data set [1] (setting [7]), the “Quantified fluorescence intensity (T/B ratio) in vivo, cMet^low adenoma” value is given as 1.19 ± 0.12 and the “Quantified fluorescence intensity (T/B ratio) in vivo, normal colonoid” value is given as 1.22 ± 0.18. Besides, the “Fold increase QQT*-IRDye800 versus TLQ*-IRDye800, cMet^high adenoma” value in data set [1] worked out at 1.8 fold. Besides, the “Peak T/B ratio (peak uptake by the adenoma)” value in data set [2] (200 μM, 200 μL i.v., at 1 h post-injection, mean ± SD, n = 6 mice) is on record as 2.2 ± 0.4. For the same molecule, in data set [2] (setting [8]), the “Time of peak uptake (peak T/B ratio) post-injection” value worked out at 1 h and the “Time to clearance of signal (return to baseline)” value is listed as ~ 24 h. In data set [2] (setting [9]), the “T/B ratio, flat lesions” value turned out to be 2.17±0.30; the “T/B ratio, grossly visible adenomas” value was 1.91±0.28; the “T/B ratio, small adenomas” value is 2.23±0.43. The half-life at 30 μM in data set [3] is 3.6 h. Besides, in data set [4], the “Fluorescence intensity human-to-mouse (h/m) ratio, cMet^high adenoma colonoid” value was found to be 7.68 ± 1.23; the “Fluorescence intensity human-to-mouse (h/m) ratio, cMet^low adenoma” value is given as 0.87 ± 0.31; the “Fluorescence intensity human-to-mouse (h/m) ratio, normal colonoid” value is 1.19 ± 0.39. Also, in data set [5], the “Uptake (quantified fluorescence) by cMet^high adenoma colonoid” value is 1.24±0.16, the “Uptake (quantified fluorescence) by cMet^low adenoma colonoid” value was 0.23±0.08 and the “Uptake (quantified fluorescence) by normal human colonoid” value is reported as 0.18±0.04. Moreover, the “Acute toxicity in animal necropsy, histology (H&E) of vital organs” value in data set [6] is listed as “No signs of acute toxicity”. Besides, in data set [6] (n = 6 mice), the “Whole blood hematology and chemistry” value was “No significant abnormalities”.

Take `CC(C)C[C@H](NC(=O)[C@@H](N)[C@@H](C)O)C(=O)N[C@@H](CCC(N)=O)C(=O)N[C@@H](Cc1c[nH]c2ccccc12)C(=O)N[C@@H](CC(N)=O)C(=O)N[C@@H](CCC(N)=O)C(=O)N[C@@H](CO)C(=O)NCC(=O)NCC(=O)NCC(=O)N[C@@H](CO)C(=O)N[C@@H](CSC1CC(=O)N(CCNC(=O)CCCCCN2/C(=C/C=C3\CCCC(/C=C/C4=[N+](CCCCS(=O)(=O)[O-])c5ccc(S(=O)(=O)O)cc5C4(C)C)=C3Oc3ccc(S(=O)(=O)O)cc3)C(C)(C)c3cc(S(=O)(=O)O)ccc32)C1=O)C(N)=O` (stereo partly drawn) [TLQ*-IRDye800, reference compound] (H-TLQWNQSGGGSC(X2)-NH2): in data set [5], the “Uptake (quantified fluorescence) by cMet^high adenoma colonoid” value amounted to 0.29±0.098 and the “Uptake (quantified fluorescence) by cMet^low adenoma colonoid” value stood at 0.25±0.06.
